The values that follow come from US20110251068A1, “PARASITIC PLANT CONTROL AGENT AND PARASITIC PLANT CONTROL METHOD” (OSAKA UNIVERSITY, priority 2008, published 2011).

SMILES strings stand for the structures.

Common to all, as to assay type: in vivo
Experiment [1] has as its system Orobanche minor. Put plainly: Germination rate of Orobanche minor seeds in the presence of enzyme inhibitors (GR24-induced). As to conditions: for influence on germination of Orobanche minor: applied concurrently with GR24 0.1 mg/L, observed after four days (FIG. 8); for germination rate: Orobanche minor seeds, with GR24 0.1 mg/L, four days after application (FIG. 8). From the text: (§1) Surfaces of seeds of Orobanche minor and Striga gesnerioides were sterilized by use of an aqueous solution containing 1% SDS and 5% sodium hypochlorite. Thereafter, the seeds were washed five times by use of sterile distilled water. Subsequently, the seeds were subjected to suction filtration and then naturally dried. GF/A glass filter paper of Φ 47 mm was spread on a laboratory dish, a GF/D glass disk of 1 cm was placed on the GF/A glass filter paper, and approximately 50 grains of the seeds were sown on the GF/D glass disk. 1.5 mL of sterile water was placed in the laboratory dish, and conditioning was carried out in a dark place at 23° C. for seven days. The GF/D glass disk was taken out of the laboratory dish on the eighth day after the beginning of conditioning and then placed on new GF/A glass filter paper. 1.5 mL of a germination stimulant GR24 (0.1 mg/L) was applied to the seeds of Orobanche minor, so as to induce its germination. A root extract of cowpea (CP) was applied to the seeds of Striga gesnerioides, so as to induce its germination. Note that concurrently with GR24 or the root extract of cowpea, nojirimycin, deoxynojirimycin, or deoxygalactonojirimycin was applied to the seeds. Note that nojirimycin is a typical β-glucosidase activity inhibitor, deoxynojirimycin is a typical α-glucosidase activity inhibitor, and deoxygalactonojirimycin is a typical galactosidase activity inhibitor. Whether or not germination occurred was observed by microscopic observation four days after application of GR24 or the root extract of cowpea (CP) and the like to the seeds.

Experiment [2] concerns Striga gesnerioides. As to the kind of experiment: Germination rate of Striga gesnerioides seeds in the presence of nojirimycin (induced by root extract of cowpea). As to conditions: for germination rate: Striga gesnerioides seeds, rate without nojirimycin taken as 100%, cowpea root extract, four days (FIG. 10).
Excerpt: as §1

For experiment [3], the system named is Orobanche minor. Put plainly: Recovery of germination inhibition effect by addition of glucose. The following applies: Orobanche minor seeds, GR24 0.1 mg/L, nojirimycin with glucose 10 mM, four days (FIG. 9). The procedure:
The following description specifically discusses how the examination was carried out. Surfaces of seeds of Orobanche minor were sterilized by use of an aqueous solution containing 1% SDS and 5% sodium hypochlorite. Thereafter, the seeds were washed five times by use of sterile distilled water. Subsequently, the seeds were subjected to suction filtration and then naturally dried. GF/A glass filter paper of Φ 47 mm was spread on a laboratory dish, a GF/D glass disk of 1 cm was placed on the GF/A glass filter paper, and approximately 50 grains of the seeds were sown on the GF/D glass disk. 1.5 mL of sterile water was placed in the laboratory dish, and conditioning was carried out in a dark place at 23° C. for seven days. The GF/D glass disk was taken out of the laboratory dish on the eighth day after the beginning of conditioning and then placed on new GF/A glass filter paper. 1.5 mL of a germination stimulant GR24 (0.1 mg/L) was applied to the seeds, so as to induce its germination. Note that concurrently with GR24, nojirimycin or a mixture of nojirimycin and glucose (glucose concentration: 10 mM) was added to the seeds. Whether or not germination occurred was observed by microscopic observation four days after application of GR24 and the like to the seeds.

Experiment [4] relates to Orobanche minor. Put plainly: Selective inhibition of germination: parasitic plant Orobanche minor. The following applies: with GR24 0.1 mg/L, four days (FIG. 13). From the text: (§2) It was examined whether or not germination inhibition caused by inhibition of gentianose metabolism was a selective phenomenon with respect to a parasitic plant. Note that nojirimycin was used as a typical gentianose metabolism inhibitor. Note also that Orobanche minor and Striga gesnerioides were used as typical parasitic plants and Trifolium pratense and Arabidopsis thaliana were used as typical non-parasitic plants. The following description specifically discusses how the examination was carried out. Surfaces of seeds of Orobanche minor, Striga gesnerioides, Arabidopsis thaliana, and Trifolium pratense were sterilized by use of an aqueous solution containing 1% SDS and 5% sodium hypochlorite. Thereafter, the seeds were washed five times by use of sterile distilled water. Subsequently, the seeds were subjected to suction filtration and then naturally dried. GF/A glass filter paper of Φ 47 mm was spread on a laboratory dish, a GF/D glass disk of 1 cm was placed on the GF/A glass filter paper, and approximately 50 grains of the seeds were sown on the GF/D glass disk. 1.5 mL of sterile water was placed in the laboratory dish, and conditioning was carried out in a dark place at 23° C. for seven days. The GF/D glass disk was taken out of the laboratory dish on the eighth day after the beginning of conditioning and then placed on new GF/A glass filter paper. […]

Experiment [5] has as its system Striga gesnerioides. Put plainly: Selective inhibition of germination: parasitic plant Striga gesnerioides. As to conditions: with root extract of cowpea, four days (FIG. 13).
Excerpt: as §2

For the next experiment, the system named is Trifolium pratense. As to the kind of experiment: Selective inhibition of germination: non-parasitic plant Trifolium pratense. The following applies: only nojirimycin, no germination inducer, four days (FIG. 13).
Excerpt: as §2

For the next experiment, the system named is Arabidopsis thaliana. Put plainly: Selective inhibition of germination: non-parasitic plant Arabidopsis thaliana. As to conditions: only nojirimycin, no germination inducer, four days (FIG. 13).
Excerpt: as §2

Take `OC[C@H]1NC[C@H](O)[C@@H](O)[C@@H]1O` [deoxynojirimycin]: the “influence on germination of Orobanche minor” value (“influence … of Orobanche minor” below) in the experiment with Orobanche minor [1] was “no influence on germination”.

With `OC[C@H]1NC(O)[C@H](O)[C@@H](O)[C@@H]1O` (some centres unmarked) [nojirimycin], the germination rate entry in the experiment on Orobanche minor [1] (concentration of 1 μM) was “approximately 20%”; with Orobanche minor [1] (concentration of 10 μM) it was “approximately 10%”; with Orobanche minor [1] (concentration of not less than 25 μM), “approximately 0%”; in the experiment with Striga gesnerioides [2] (1 μM), “approximately 24.3%”; in the experiment with Striga gesnerioides [2] (10 μM) it was about 7.5%; in the experiment with Striga gesnerioides [2] (50 μM), about 6.2%. The germination rate with Striga gesnerioides [2] (100 μM) and in the experiment with Striga gesnerioides [2] (1 mM) was about 0% throughout. Further, in the experiment on Orobanche minor [1], the “influence … of Orobanche minor” value is recorded as “inhibited germination”. Moreover, the “influence on germination of Striga gesnerioides” value with Striga gesnerioides [2] (applied concurrently with root extract of cowpea, observed after four days (FIG. 10)) is listed as “inhibited germination”. Moreover, in the experiment on Orobanche minor [3], the “germination recovery effect of glucose versus germination inhibition effect of nojirimycin” value is listed as “recovered by glucose”. The “inhibition of germination of Orobanche minor (parasitic plant)” value in the experiment on Orobanche minor [4] was “effectively inhibited germination”. Moreover, the “inhibition of germination of Striga gesnerioides (parasitic plant)” value in the experiment on Striga gesnerioides [5] is recorded as “effectively inhibited germination”. Besides, the “inhibition of germination of Trifolium pratense (non-parasitic plant)” value with Trifolium pratense was “did not inhibit germination”. In the experiment with Arabidopsis thaliana, the “inhibition of germination of Arabidopsis thaliana (non-parasitic plant)” value is listed as “did not inhibit germination”.

As for `OC[C@H]1NC[C@H](O)[C@@H](O)[C@H]1O` [deoxygalactonojirimycin], the “influence … of Orobanche minor” value in the experiment on Orobanche minor [1] is given as “no influence on germination”.
